In patent US10472346B2, “Potent gamma-secretase modulators” (The General Hospital Coporation, priority 2014, dated 2019):
“Also recorded” adds a separate entry of the source.

Assays:
Aβ42 = Aβ42 IC50 assay (SHSYSY-APP cell-based screening, UCSD sandwich Aβ42 ELISA)
Method in brief: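 SHSY5Y-APP cells; secreted Aβ42 quantified by sandwich ELISA to give IC50. Each compound run twice in triplicate on sequential days. Values accepted only when the two runs agree within 3-fold.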

Notch processing = Notch processing in transfected H4-APP751 cells (Western blot, Myc antibody, NICD); format: cell-based, human; settings: H4-APP751 cells transfected with the Notch NδED construct, 40 nM, 200 nM, 1000 nM, and 5000 nM, 24 hrs
Excerpt: Cells were harvested 48 hrs post transfection and applied to Western blotting analysis. Myc antibody was utilized to assess the NAED and NICD tagged with Myc on their N-termini. β-Actin was utilized as the loading control.
Cells were harvested 48 hrs post transfection and subjected to Western blotting analysis. Myc antibody was utilized to assess the NδED and NICD tagged with Myc on their N-termini.
Stable H4 human neuroglioma cells over-expressing human APP751, or H4-APP751 cells, were transfected with the NAE construct, and then treated with different concentrations SGSM Compound 1 (Lanes 1-6) or DAPT (Lanes 7-10) for another 24 hrs and are shown in FIG. 9. Cells were harvested 48 hrs post transfection and applied to Western blotting analysis. Myc antibody was utilized to assess the NAED and NICD tagged with Myc on their N-termini β-Actin was utilized as the loading control.
Stably-transfected H4 human neuroglioma cells over-expressing human APP751 (H4-APP751) cells, were transfected with the Notch NδED construct, and then treated with vehicle, or different doses of GSMs (40 nM, 200 nM, 1000 nM, and 5000 nM) for 24 hrs. Cells were harvested 48 hrs post transfection and subjected to Western blotting analysis.

Compound | IC50 (Aβ42) | Notch processing (NICD levels, Western blot) (Notch processing)
COc1nc(-c2cc(C)c(N[C@@H](C)c3cc(F)cc(F)c3)nn2)ccc1-n1cnc(C)c1 [Example 46, (S)—N-(1-(3,5-difluorophenyl)ethyl)-6-(6-methoxy-5-(4-methyl-1H-imidazol-1-yl)pyridin-2-yl)-4-methylpyridazin-3-amine] | 4.1 nM | did not decrease the NICD levels at all concentrations studied; also recorded: not inhibit Notch processing
COc1nc(-c2cc(C)c(N[C@@H](C)c3ccc(F)cc3F)nn2)ccc1-n1cnc(C)c1 [Example 45, (S)—N-(1-(2,4-difluorophenyl)ethyl)-6-(6-methoxy-5-(4-methyl-1H-imidazol-1-yl)pyridin-2-yl)-4-methylpyridazin-3-amine] | 2.5 nM | did not decrease the NICD levels at all concentrations studied; also recorded: not inhibit Notch processing
COc1nc(-c2cc(C)c(N[C@@H](C)c3ccccc3F)nn2)ccc1-n1cnc(C)c1 [Example 34, (S)—N-(1-(2-fluorophenyl)ethyl)-6-(6-methoxy-5-(4-methyl-1H-imidazol-1-yl)pyridin-2-yl)-4-methylpyridazin-3-amine] | 4.3 nM | did not decrease the NICD levels at all concentrations studied; also recorded: not inhibit Notch processing
